ChEMBL document CHEMBL1781997, “Anticonvulsant 4-aminobenzenesulfonamide derivatives with branched-alkylamide moieties: X-ray crystallography and inhibition studies of human carbonic anhydrase isoforms I, II, VII, and XIV” (J Med Chem, 2011)

The compounds below were run on Rattus norvegicus (assay: Anticonvulsant activity against maximal electroshock-induced seizures in po dosed rat).
Type: functional

| Compound | ED50 [µmol/kg] |
| --- | --- |
| CC(C)(C)CC(=O)Nc1ccc(S(N)(=O)=O)cc1 | 35 |
| CCC(CC(C)C)C(=O)Nc1ccc(S(N)(=O)=O)cc1 (configuration not stated) | 56 |
| CCCC(C(=O)Nc1ccc(S(N)(=O)=O)cc1)C(C)C (configuration not stated) | 139 |
| CCC(C)C(=O)Nc1ccc(S(N)(=O)=O)cc1 (configuration not stated) | 30 |
| CCCC(CC)C(=O)Nc1ccc(S(N)(=O)=O)cc1 (configuration not stated) | 41 |
| CC(C)(C)C(=O)Nc1ccc(S(N)(=O)=O)cc1 | 165 |
| CCC(C)CC(=O)Nc1ccc(S(N)(=O)=O)cc1 (configuration not stated) | 61 |
| CCCC(C(=O)Nc1ccc(S(N)(=O)=O)cc1)C(C)CC (configuration not stated) | 115 |
| CCC(CC)C(=O)Nc1ccc(S(N)(=O)=O)cc1 | 37 |
| CC1(C)O[C@@H]2[C@@H](CO[C@@]3(COS(N)(=O)=O)OC(C)(C)O[C@@H]23)O1 [TOPIRAMATE] | 10 |
| CCC(CC)C(=O)NCc1ccc(S(N)(=O)=O)cc1 | 87 |
| NS(=O)(=O)c1ccc(NC(=O)Cc2ccccc2)cc1 | 55 |
| CCCC(C)C(=O)Nc1ccc(S(N)(=O)=O)cc1 (configuration not stated) | 40 |
| CCCCC(CC)C(=O)Nc1ccc(S(N)(=O)=O)cc1 (configuration not stated) | 80 |
| CC(C)C(C(=O)Nc1ccc(S(N)(=O)=O)cc1)C(C)(C)C (configuration not stated) | 58 |
| NS(=O)(=O)Cc1noc2ccccc12 [ZONISAMIDE] | 100 |

These compounds were tested against Carbonic anhydrase 1 (Homo sapiens, UniProt P00915).
Sequence of Carbonic anhydrase 1 (P00915 whole entry): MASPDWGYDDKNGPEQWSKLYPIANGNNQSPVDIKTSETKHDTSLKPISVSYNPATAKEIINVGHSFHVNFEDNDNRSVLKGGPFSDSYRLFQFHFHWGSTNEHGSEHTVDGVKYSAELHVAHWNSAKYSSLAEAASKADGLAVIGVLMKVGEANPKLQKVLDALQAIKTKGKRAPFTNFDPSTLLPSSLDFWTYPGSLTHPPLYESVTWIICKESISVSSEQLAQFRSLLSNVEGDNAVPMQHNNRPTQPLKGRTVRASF
Description: Inhibition of human carbonic anhydrase 1 preincubated with compound for 15 mins by carbon dioxide hydration assay

| Ki [nM] | Compound |
| --- | --- |
| 7.6 | NS(=O)(=O)c1ccc(NC(=O)Cc2ccccc2)cc1 |
| 1710 | CCCC(C)C(=O)Nc1ccc(S(N)(=O)=O)cc1 (configuration not stated) |
| 407 | CCC(CC)C(=O)NCCc1ccc(S(N)(=O)=O)cc1 |

The compounds below were run against Carbonic anhydrase 2 (Homo sapiens, UniProt P00918).
Description: Inhibition of human carbonic anhydrase 2 preincubated with compound for 15 mins by carbon dioxide hydration assay

| Ki [nM] | Compound |
| --- | --- |
| 220 | CCCC(C)C(=O)Nc1ccc(S(N)(=O)=O)cc1 (configuration not stated) |
| 33.8 | CCC(CC)C(=O)NCCc1ccc(S(N)(=O)=O)cc1 |

Each compound was assayed against Carbonic anhydrase 7 (Homo sapiens, UniProt P43166).
Sequence of Carbonic anhydrase 7 (P43166 whole entry): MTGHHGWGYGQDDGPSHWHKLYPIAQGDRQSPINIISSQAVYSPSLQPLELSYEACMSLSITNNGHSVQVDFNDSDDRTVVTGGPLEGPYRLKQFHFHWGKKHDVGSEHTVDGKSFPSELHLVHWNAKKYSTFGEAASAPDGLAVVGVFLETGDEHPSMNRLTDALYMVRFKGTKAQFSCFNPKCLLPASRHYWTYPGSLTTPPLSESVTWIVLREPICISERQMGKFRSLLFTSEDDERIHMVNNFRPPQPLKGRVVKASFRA
Description: Inhibition of human carbonic anhydrase 7 preincubated with compound for 15 mins by carbon dioxide hydration assay

| Ki [nM] | Compound |
| --- | --- |
| 52 | NS(=O)(=O)c1ccc(NC(=O)Cc2ccccc2)cc1 |
| 605 | CCCC(C)C(=O)Nc1ccc(S(N)(=O)=O)cc1 (configuration not stated) |
| 51 | CCC(CC)C(=O)NCCc1ccc(S(N)(=O)=O)cc1 |

These compounds were tested against Carbonic anhydrase 14 (Homo sapiens, UniProt Q9ULX7).
Sequence of Carbonic anhydrase 14 (Q9ULX7 whole entry): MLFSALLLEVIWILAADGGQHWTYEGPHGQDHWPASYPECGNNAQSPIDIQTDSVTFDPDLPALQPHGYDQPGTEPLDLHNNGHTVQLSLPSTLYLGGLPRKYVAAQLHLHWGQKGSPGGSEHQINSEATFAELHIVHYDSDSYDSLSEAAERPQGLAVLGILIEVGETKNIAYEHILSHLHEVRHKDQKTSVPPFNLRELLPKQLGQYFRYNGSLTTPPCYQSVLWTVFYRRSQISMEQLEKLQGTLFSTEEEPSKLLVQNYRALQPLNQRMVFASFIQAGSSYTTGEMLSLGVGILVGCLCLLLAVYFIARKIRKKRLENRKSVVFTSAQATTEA
Description: Inhibition of human carbonic anhydrase 14 preincubated with compound for 15 mins by carbon dioxide hydration assay

| Ki [nM] | Compound |
| --- | --- |
| 46 | NS(=O)(=O)c1ccc(NC(=O)Cc2ccccc2)cc1 |
| 644 | CCCC(C)C(=O)Nc1ccc(S(N)(=O)=O)cc1 (configuration not stated) |
| 684 | CCC(CC)C(=O)NCCc1ccc(S(N)(=O)=O)cc1 |
